Source: US11473151B2, “Diagnostic and therapeutic methods for cancer” (Genentech, Inc., priority 2017, dated 2022)

Tested on: mUC patients (IMvigor210)
Experiment: Association between mutations (FMOne panel, single genes and pathways) and response to atezolizumab or TMB
Type: in vivo, human
Excerpt: In addition, DNA was extracted from FFPE 10 micron sections from 293 patients and submitted to a Clinical Laboratory Improvement Amendments (CLIA)-certified, New York State-accredited, and College of American Pathologists (CAP)-accredited laboratory (Foundation Medicine, Cambridge, Mass.) for targeted next-generation sequencing (NGS)-based genomic profiling. Adaptor-ligated DNA underwent hybrid capture for all coding exons of 395 cancer-related genes plus select introns from 31 genes frequently rearranged in cancer (FMOne panel).
Captured libraries were sequenced to a median exon coverage depth of >500× (DNA) or 3M unique reads (RNA) using Agilent SURESELECT® v5 kit at 51 Mb on the ILLUMINA® HISEQ® 2500, and resultant sequences were analyzed for base substitutions, small insertions and deletions (indels), copy number alterations (focal amplifications and homozygous deletions), and gene fusions/rearrangements, as previously described (Frampton et al. Nat. Biotechnol. 31:1023-1031, 2013). Frequent germline variants from the 1000 Genomes Project (dbSNP142) were removed. To maximize mutation-detection accuracy (sensitivity and specificity) in impure clinical specimens, the test was previously optimized and validated to detect base substitutions at a ≥5% mutant allele frequency (MAF), indels with a ≥10% MAF with ≥99% accuracy, and fusions occurring within baited introns/exons with >99% sensitivity (Frampton et al. supra). Known confirmed somatic alterations deposited in the Catalog of Somatic Mutations in Cancer (COSMIC v62) are called at allele frequencies ≥1% (Forbes et al. Nucleic Acids Res. 39:D945-D950, 2011).
From the FMOne panel, tumor mutational burden was calculated from the number of short variants in coding regions (substitutions and indels, including synonymous alterations) that were detected. Known and predicted germline alterations as well as known somatic and likely somatic variants are not counted. The mutation burden per Mb is the number of mutations counted divided by the Mb of genomic target territory of the FMOne panel. Unless otherwise indicated, FMOne-based mutation burden was used for all analyses around mutation burden.
For each gene, a patient was called mutant if a known or likely mutation was reported for that gene. For pathway-based analyses, a patient was called mutant in a pathway if any gene within the pathway was reported to have a known or likely mutation. Otherwise, a patient was considered to be non-mutant. A Fisher's Exact Test was used to determine whether the number of mutant patients differed between responders (complete and partial responders) and non-responders (stable and progressive disease). An association between mutation status and mutation burden was tested using a Wilcoxon Rank Sum Test. Single gene p-values were corrected for the number of tests performed using Benjamini and Hochberg adjustment. For pathway-based analyses, nominal p-values are reported.

Substance: atezolizumab: anti-PD-L1 antibody (Genentech), CAS Registry Number 1422185-06-5, also known as MPDL3280A
- estimate (IKBKE mutation status vs response (CR/PR vs. SD/PD)): 0
- estimate (INPP4B mutation status vs response (CR/PR vs. SD/PD)): 0.00E+00
- estimate (IRS2 mutation status vs response (CR/PR vs. SD/PD)): 4.96E−01
- estimate (JAK1 mutation status vs response (CR/PR vs. SD/PD)): 0.00E+00
- estimate (JAK2 mutation status vs response (CR/PR vs. SD/PD)): 3.33E−01
- estimate (JUN mutation status vs response (CR/PR vs. SD/PD)): Inf
- estimate (KDM5A mutation status vs response (CR/PR vs. SD/PD)): Inf
- estimate (KDM5C mutation status vs response (CR/PR vs. SD/PD)): 3.30E−01
- estimate (KDM6A mutation status vs response (CR/PR vs. SD/PD)): 0.5153
- estimate (KDR mutation status vs response (CR/PR vs. SD/PD)): 0
- estimate (KEAP1 mutation status vs response (CR/PR vs. SD/PD)): 0
- estimate (KEL mutation status vs response (CR/PR vs. SD/PD)): 0
- estimate (KIT mutation status vs response (CR/PR vs. SD/PD)): 0.3333
- estimate (KRAS mutation status vs response (CR/PR vs. SD/PD)): 1.346
- estimate (LRP1B mutation status vs response (CR/PR vs. SD/PD)): 0.1555
- estimate (LRP6 mutation status vs response (CR/PR vs. SD/PD)): 0
- estimate (LYN mutation status vs response (CR/PR vs. SD/PD)): Inf
- estimate (LZTR1 mutation status vs response (CR/PR vs. SD/PD)): 0
- estimate (MAGI2 mutation status vs response (CR/PR vs. SD/PD)): Inf
- estimate (MAP2K4 mutation status vs response (CR/PR vs. SD/PD)): Inf
- estimate (MAP3K1 mutation status vs response (CR/PR vs. SD/PD)): 0.3333
- estimate (MAP3K13 mutation status vs response (CR/PR vs. SD/PD)): Inf
- estimate (MCL1 mutation status vs response (CR/PR vs. SD/PD)): 0.8339
- estimate (MDM2 mutation status vs response (CR/PR vs. SD/PD)): 0.4704
- estimate (MDM4 mutation status vs response (CR/PR vs. SD/PD)): Inf
- estimate (MEN1 mutation status vs response (CR/PR vs. SD/PD)): 0
- estimate (MET mutation status vs response (CR/PR vs. SD/PD)): 0
- estimate (MITF mutation status vs response (CR/PR vs. SD/PD)): Inf
- estimate (MLL2 mutation status vs response (CR/PR vs. SD/PD)): 1.185
- estimate (MLL3 mutation status vs response (CR/PR vs. SD/PD)): 0
- estimate (MPL mutation status vs response (CR/PR vs. SD/PD)): 0
- estimate (MSH2 mutation status vs response (CR/PR vs. SD/PD)): 0.6678
- estimate (MSH6 mutation status vs response (CR/PR vs. SD/PD)): 1.346
- estimate (MST1R mutation status vs response (CR/PR vs. SD/PD)): Inf
- estimate (MTOR mutation status vs response (CR/PR vs. SD/PD)): 0.3333
- estimate (MUTYH mutation status vs response (CR/PR vs. SD/PD)): 0.6678
- estimate (MYC mutation status vs response (CR/PR vs. SD/PD)): 1.354
- estimate (MYCL1 mutation status vs response (CR/PR vs. SD/PD)): 0.6605
- estimate (MYCN mutation status vs response (CR/PR vs. SD/PD)): 0.2167
- estimate (MYST3 mutation status vs response (CR/PR vs. SD/PD)): 0.6642
- estimate (NBN mutation status vs response (CR/PR vs. SD/PD)): 0
- estimate (NCOR1 mutation status vs response (CR/PR vs. SD/PD)): 1.179
- estimate (NF1 mutation status vs response (CR/PR vs. SD/PD)): 0.4962
- estimate (NF2 mutation status vs response (CR/PR vs. SD/PD)): 0.3297
- estimate (NFE2L2 mutation status vs response (CR/PR vs. SD/PD)): 0.3333
- estimate (NFKBIA mutation status vs response (CR/PR vs. SD/PD)): Inf
- estimate (NKX2−1 mutation status vs response (CR/PR vs. SD/PD)): Inf
- estimate (NOTCH1 mutation status vs response (CR/PR vs. SD/PD)): 1.005
- estimate (NOTCH2 mutation status vs response (CR/PR vs. SD/PD)): 0.6678
- estimate (NOTCH3 mutation status vs response (CR/PR vs. SD/PD)): Inf
- estimate (NOTCH4 mutation status vs response (CR/PR vs. SD/PD)): 0.6678
- estimate (NRAS mutation status vs response (CR/PR vs. SD/PD)): 0
- estimate (NTRK1 mutation status vs response (CR/PR vs. SD/PD)): 0
- estimate (NTRK3 mutation status vs response (CR/PR vs. SD/PD)): Inf
- estimate (NUP93 mutation status vs response (CR/PR vs. SD/PD)): 0.6678
- estimate (PALB2 mutation status vs response (CR/PR vs. SD/PD)): 0.6678
- estimate (PARK2 mutation status vs response (CR/PR vs. SD/PD)): Inf
- estimate (PARP4 mutation status vs response (CR/PR vs. SD/PD)): Inf
- estimate (PAX5 mutation status vs response (CR/PR vs. SD/PD)): Inf
- estimate (PBRM1 mutation status vs response (CR/PR vs. SD/PD)): 0.1081
- estimate (PDCD1LG2 mutation status vs response (CR/PR vs. SD/PD)): 0.6678
- estimate (PDGFRA mutation status vs response (CR/PR vs. SD/PD)): 0
- estimate (PIK3C2B mutation status vs response (CR/PR vs. SD/PD)): Inf
- estimate (PIK3CA mutation status vs response (CR/PR vs. SD/PD)): 0.7935
- estimate (PIK3CB mutation status vs response (CR/PR vs. SD/PD)): Inf
- estimate (PIK3CG mutation status vs response (CR/PR vs. SD/PD)): 0
- estimate (PIK3R1 mutation status vs response (CR/PR vs. SD/PD)): 0.3297
- estimate (PIK3R2 mutation status vs response (CR/PR vs. SD/PD)): 0
- estimate (PMS2 mutation status vs response (CR/PR vs. SD/PD)): 0
- estimate (POLE mutation status vs response (CR/PR vs. SD/PD)): 0
- estimate (PRKCI mutation status vs response (CR/PR vs. SD/PD)): 0.6678
- estimate (PRSS8 mutation status vs response (CR/PR vs. SD/PD)): 0
- estimate (PTCH2 mutation status vs response (CR/PR vs. SD/PD)): 0
- estimate (PTEN mutation status vs response (CR/PR vs. SD/PD)): 0.3224
- estimate (PTPN11 mutation status vs response (CR/PR vs. SD/PD)): Inf
- estimate (PTPRD mutation status vs response (CR/PR vs. SD/PD)): Inf
- estimate (RAD50 mutation status vs response (CR/PR vs. SD/PD)): Inf
- estimate (RAD51C mutation status vs response (CR/PR vs. SD/PD)): 0
- estimate (RAD51 mutation status vs response (CR/PR vs. SD/PD)): Inf
- estimate (RAF1 mutation status vs response (CR/PR vs. SD/PD)): 0.5846
- estimate (RB1 mutation status vs response (CR/PR vs. SD/PD)): 0.6832
- estimate (RBM10 mutation status vs response (CR/PR vs. SD/PD)): 0.7743
- estimate (REL mutation status vs response (CR/PR vs. SD/PD)): 0
- estimate (RICTOR mutation status vs response (CR/PR vs. SD/PD)): 0.5352
- estimate (RNF43 mutation status vs response (CR/PR vs. SD/PD)): 0
- estimate (ROS1 mutation status vs response (CR/PR vs. SD/PD)): Inf
- estimate (RPA1 mutation status vs response (CR/PR vs. SD/PD)): Inf
- estimate (RPTOR mutation status vs response (CR/PR vs. SD/PD)): Inf
- estimate (RUNX1 mutation status vs response (CR/PR vs. SD/PD)): 0.3333
- estimate (SDHA mutation status vs response (CR/PR vs. SD/PD)): Inf
- estimate (SETD2 mutation status vs response (CR/PR vs. SD/PD)): 1.691
- estimate (SF3B1 mutation status vs response (CR/PR vs. SD/PD)): 0.1646
- estimate (SLIT2 mutation status vs response (CR/PR vs. SD/PD)): Inf
- estimate (SMAD2 mutation status vs response (CR/PR vs. SD/PD)): Inf
- estimate (SMAD3 mutation status vs response (CR/PR vs. SD/PD)): Inf
- estimate (SMAD4 mutation status vs response (CR/PR vs. SD/PD)): Inf
- estimate (SMARCA4 mutation status vs response (CR/PR vs. SD/PD)): 0.548
- estimate (SOX2 mutation status vs response (CR/PR vs. SD/PD)): Inf
- estimate (SOX9 mutation status vs response (CR/PR vs. SD/PD)): Inf
- estimate (SOX10 mutation status vs response (CR/PR vs. SD/PD)): Inf
